Experimental data as given in ChEMBL document CHEMBL1140105, “Synthesis of bivalent beta2-adrenergic and adenosine A1 receptor ligands” (J Med Chem, 2008).
The source made the active and inactive calls. The rule behind the calls is not given here.

What was measured:
[1] = target: T1, Beta-2 adrenergic receptor (Mesocricetus auratus, UniProt P04274); assay: Agonist activity at adrenergic beta2 receptor in Syrian hamster DDT1 MF2 cells assessed as stimulation of cAMP accumulation by radioimmunoassay in presence of 1 uM DPCPX; assay type: functional, cell-based
[2] = Displacement of [3H]DPCPX from adenosine A1 receptor in Syrian hamster DDT1 MF2 cells; assay type: cell-based, Mesocricetus auratus
[3] = target: T1, Beta-2 adrenergic receptor; assay: Displacement of [125I](-)-iodopindolol from adrenergic beta2 receptor in Syrian hamster DDT1 MF2 cells; assay type: cell-based
[4] = target: Beta-2 adrenergic receptor (Mesocricetus auratus) (UniProt P04274); assay: Displacement of [125I](-)-iodopindolol from adrenergic beta2 receptor in Syrian hamster DDT1 MF2 cells at 10 uM; assay type: cell-based
[5] = target: Beta-2 adrenergic receptor (Mesocricetus auratus) (UniProt P04274); assay: Agonist activity at adrenergic beta2 receptor in Syrian hamster DDT1 MF2 cells assessed as stimulation of cAMP accumulation up to 100 uM by radioimmunoassay in presence of 1 uM DPCPX; assay type: functional, cell-based
[6] = target: Beta-2 adrenergic receptor (Mesocricetus auratus) (UniProt P04274); assay: Agonist activity at adrenergic beta2 receptor in Syrian hamster DDT1 MF2 cells assessed as stimulation of cAMP accumulation by radioimmunoassay in presence of 1 uM DPCPX relative to (-)-isoproterenol; assay type: functional, cell-based

Beta-2 adrenergic receptor (Mesocricetus auratus), sequence (P04274 whole entry, looked up): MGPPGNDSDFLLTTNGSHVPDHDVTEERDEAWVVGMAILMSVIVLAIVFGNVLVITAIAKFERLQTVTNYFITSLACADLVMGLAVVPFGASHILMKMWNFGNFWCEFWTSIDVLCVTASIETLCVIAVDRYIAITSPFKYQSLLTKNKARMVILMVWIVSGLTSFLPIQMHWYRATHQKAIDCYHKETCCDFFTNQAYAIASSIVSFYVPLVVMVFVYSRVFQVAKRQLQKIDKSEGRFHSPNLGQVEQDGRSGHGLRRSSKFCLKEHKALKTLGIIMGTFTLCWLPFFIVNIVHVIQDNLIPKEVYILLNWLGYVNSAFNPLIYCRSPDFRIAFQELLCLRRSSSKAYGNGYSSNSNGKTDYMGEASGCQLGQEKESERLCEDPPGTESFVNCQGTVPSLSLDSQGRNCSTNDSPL
T1 sequence (P04274 whole entry): as the sequence (P04274 whole entry, looked up) above

EC50 [1]	Ki [3]	inhibition [4]	Activity [5]	Activity [6]	Compound	Ki [2]
1.09 µM	–	–	–	–	Nc1cc(C(O)CNCCCCNc2ncnc3c2ncn3[C@@H]2O[C@H](CO)[C@@H](O)[C@H]2O)ccc1O (stereo not given in full)	–
–	> 10 µM	20%	inactive	–	O=CNc1cc(C(O)CNCCNc2ncnc3c2ncn3[C@@H]2O[C@H](CO)[C@@H](O)[C@H]2O)ccc1O (stereo not given in full)	1.98 µM
–	> 10 µM	20%	inactive	50%	Nc1cc(C(O)CNCCNc2ncnc3c2ncn3[C@@H]2O[C@H](CO)[C@@H](O)[C@H]2O)ccc1O (stereo not given in full)	2.75 µM
